From patent US10745384B2, “Indazole derivatives as αv integrin antagonists” (BRISTOL-MYERS SQUIBB COMPANY, priority 2016, dated 2020)
Counter-ions that a name gives are not always drawn.

Molecular target: T1, human αVβ6 (Homo sapiens, UniProt P06756+P18564)
T1 construct: purchased R & D systems 3817-AV
Experiment: human αVβ6 HTRF binding assay
Details: recombinant human αVβ6 integrin, FITC-conjugated fibronectin
Procedure, shortened: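 HTRF binding in 20 mM Tris pH 7.4 with 1 mM MgCl2, 1 mM MnCl2, 0.01% Tween 20 and 0.01% BSA. For αVβ6, biotinylated integrin (1.25 nM) and FITC-fibronectin (5 nM) were incubated 1 h at RT, then streptavidin-terbium (0.625 nM) was added overnight in the dark. An SPA-based fibronectin binding format was an alternative.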

T1 sequence (P06756 31-992 limits assumed): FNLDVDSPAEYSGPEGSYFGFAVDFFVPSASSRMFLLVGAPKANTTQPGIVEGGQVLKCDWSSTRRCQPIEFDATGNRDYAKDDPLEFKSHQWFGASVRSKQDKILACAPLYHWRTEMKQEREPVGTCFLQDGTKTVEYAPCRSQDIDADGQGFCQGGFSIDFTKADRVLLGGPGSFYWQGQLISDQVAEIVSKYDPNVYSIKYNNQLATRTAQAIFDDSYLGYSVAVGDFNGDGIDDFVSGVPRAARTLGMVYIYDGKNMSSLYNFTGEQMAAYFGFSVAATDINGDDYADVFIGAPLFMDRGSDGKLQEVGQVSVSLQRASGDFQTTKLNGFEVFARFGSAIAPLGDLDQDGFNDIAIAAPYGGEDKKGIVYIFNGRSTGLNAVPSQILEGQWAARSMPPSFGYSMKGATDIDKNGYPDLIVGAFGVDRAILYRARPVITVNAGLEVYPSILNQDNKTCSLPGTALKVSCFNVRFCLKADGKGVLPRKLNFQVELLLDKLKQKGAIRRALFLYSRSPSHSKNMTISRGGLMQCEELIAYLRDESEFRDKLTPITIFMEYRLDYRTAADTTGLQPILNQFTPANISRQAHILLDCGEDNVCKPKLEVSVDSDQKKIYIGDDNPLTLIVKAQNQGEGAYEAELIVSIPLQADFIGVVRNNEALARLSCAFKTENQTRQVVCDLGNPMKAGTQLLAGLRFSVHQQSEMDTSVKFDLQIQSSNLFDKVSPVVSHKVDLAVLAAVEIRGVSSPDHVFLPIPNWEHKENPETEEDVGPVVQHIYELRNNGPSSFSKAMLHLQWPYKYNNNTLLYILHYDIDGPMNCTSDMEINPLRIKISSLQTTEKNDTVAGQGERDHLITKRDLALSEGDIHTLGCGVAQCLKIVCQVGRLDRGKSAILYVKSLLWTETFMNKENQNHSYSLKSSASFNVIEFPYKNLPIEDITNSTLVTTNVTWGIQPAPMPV
T1 sequence (P18564 22-707 limits assumed): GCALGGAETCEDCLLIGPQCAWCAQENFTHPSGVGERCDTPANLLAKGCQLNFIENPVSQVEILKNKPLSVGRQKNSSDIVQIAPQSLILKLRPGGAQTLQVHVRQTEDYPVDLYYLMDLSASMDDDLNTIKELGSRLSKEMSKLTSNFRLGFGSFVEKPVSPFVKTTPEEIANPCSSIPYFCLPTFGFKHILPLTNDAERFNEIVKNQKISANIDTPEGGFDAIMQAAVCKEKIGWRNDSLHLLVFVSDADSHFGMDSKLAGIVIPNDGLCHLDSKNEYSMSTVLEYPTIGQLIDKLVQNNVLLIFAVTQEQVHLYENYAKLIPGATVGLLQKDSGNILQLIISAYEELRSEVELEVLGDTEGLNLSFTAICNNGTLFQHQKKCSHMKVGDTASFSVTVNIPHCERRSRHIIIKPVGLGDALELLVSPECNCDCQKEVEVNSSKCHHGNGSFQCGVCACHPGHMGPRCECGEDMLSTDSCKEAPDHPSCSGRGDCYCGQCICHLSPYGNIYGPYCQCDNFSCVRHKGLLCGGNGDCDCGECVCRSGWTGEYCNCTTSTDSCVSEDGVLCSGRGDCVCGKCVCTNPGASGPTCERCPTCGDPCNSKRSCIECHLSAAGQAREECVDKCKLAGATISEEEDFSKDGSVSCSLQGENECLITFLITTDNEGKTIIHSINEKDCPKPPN

| SMILES | IC50 |
| --- | --- |
| CN(C)C(=O)c1cccc(C(CC(=O)O)n2ncc3cc(OCCc4ccc5c(n4)NCCC5)ccc32)c1 (stereo not shown) [Example 35, 3-(3-(Dimethylcarbamoyl)phenyl)-3-(5-(2-(5,6,7,8-tetrahydro-1,8-naphthyridin-2-yl)ethoxy)-1H-indazol-1-yl)propanoic acid] | 17 nM |
| Cc1nc2c(cc1Cc1ccc3cn([C@@H](CC(=O)O)c4cnc5ccccc5c4)nc3c1)CCCN2 [Example 82, (S)-3-(6-((2-Methyl-5,6,7,8-tetrahydro-1,8-naphthyridin-3-yl)methyl)-2H-indazol-2-yl)-3-(quinolin-3-yl)propanoic acid] | 150 nM |
| CN(C)C(=O)c1cncc(C(CC(=O)O)n2ncc3cc(OCCc4ccc5c(n4)NCCC5)ccc32)c1 (stereo not shown) [Example 153, 3-(5-(dimethylcarbamoyl)pyridin-3-yl)-3-(5-(2-(5,6,7,8-tetrahydro-1,8-naphthyridin-2-yl)ethoxy)-1H-indazol-1-yl)propanoic acid] | 17 nM |
| O=C(O)CC(C1CCCCC1)n1ncc2cc(OCCc3ccc4c(n3)NCCC4)ccc21 (stereo not shown) [Example 164, 3-cyclohexyl-3-(5-(2-(5,6,7,8-tetrahydro-1,8-naphthyridin-2-yl)ethoxy)-1H-indazol-1-yl)propanoic acid] | 3200 nM |
| O=C(O)CCn1ncc2cc(OCCc3ccc4c(n3)NCCC4)ccc21 [Example 51, 3-(5-(2-(5,6,7,8-Tetrahydro-1,8-naphthyridin-2-yl)ethoxy)-1H-indazol-1-yl)propanoic acid] | 2500 nM |
| COc1ncc(C(CC(=O)O)n2ncc3cc(OCCc4ccc5c(n4)NCCC5)ccc32)cc1C1OCCO1 (stereo not shown) [Example 133, 3-(5-(1,3-Dioxolan-2-yl)-6-methoxypyridin-3-yl)-3-(5-(2-(5,6,7,8-tetrahydro-1,8-naphthyridin-2-yl)ethoxy)-1H-indazol-1-yl)propanoic acid] | 400 nM |
| O=C(O)C[C@@H](c1cccc(N2CCCC2=O)c1)n1ncc2cc(OCCc3ccc4c(n3)NCCC4)ccc21 [Example 84, (S)-3-(3-(2-Oxopyrrolidin-1-yl)phenyl)-3-(5-(2-(5,6,7,8-tetrahydro-1,8-naphthyridin-2-yl)ethoxy)-1H-indazol-1-yl)propanoic acid, TFA] | 120 nM |
| O=C(O)CC(c1cnc2c(c1)OCO2)n1ncc2cc(OCCc3ccc4c(n3)NCCC4)ccc21 (stereo not shown) [Example 132, 3-([1,3]Dioxolo[4,5-b]pyridin-6-yl)-3-(5-(2-(5,6,7,8-tetrahydro-1,8-naphthyridin-2-yl)ethoxy)-1H-indazol-1-yl)propanoic acid] | 22 nM |
| COc1ccc([C@H](CC(=O)O)n2cc3ccc(CCCc4ccc5c(n4)NCCC5)cc3n2)cn1 [Example 9, (S)-3-(6-Methoxypyridin-3-yl)-3-(6-(3-(5,6,7,8-tetrahydro-1,8-naphthyridin-2-yl)propyl)-2H-indazol-2-yl)propanoic acid] | 2.6 nM |
| O=C(O)C[C@@H](c1cnc2ccccc2c1)n1cc2ccc(CCc3ccc4c(n3)NCCC4)cc2n1 [Example 81, (S)-3-(Quinolin-3-yl)-3-(6-(2-(5,6,7,8-tetrahydro-1,8-naphthyridin-2-yl)ethyl)-2H-indazol-2-yl)propanoic acid] | 3.2 nM |
| O=C(O)CC(c1cc(Cl)cc(Cl)c1)n1ncc2c(OCCc3ccc4c(n3)NCCC4)cccc21 (stereo not shown) [Example 32, 3-(3,5-Dichlorophenyl)-3-(4-(2-(5,6,7,8-tetrahydro-1,8-naphthyridin-2-yl)ethoxy)-1H-indazol-1-yl)propanoic acid] | 1300 nM |
| O=C(O)CC(c1cncc(C(=O)N2CCC2)c1)n1ncc2cc(OCCc3ccc4c(n3)NCCC4)ccc21 (stereo not shown) [Example 157, 3-(5-(azetidine-1-carbonyl)pyridin-3-yl)-3-(5-(2-(5,6,7,8-tetrahydro-1,8-naphthyridin-2-yl)ethoxy)-1H-indazol-1-yl)propanoic acid] | 32 nM |
| O=C(O)CC(c1ccc2nncn2c1)n1ncc2cc(OCCc3ccc4c(n3)NCCC4)ccc21 (stereo not shown) [Example 115, 3-([1,2,4]Triazolo[4,3-a]pyridin-6-yl)-3-(5-(2-(5,6,7,8-tetrahydro-1,8-naphthyridin-2-yl)ethoxy)-1H-indazol-1-yl)propanoic acid] | 60 nM |
| CN1CCN(C(=O)c2cncc(C(CC(=O)O)n3ncc4cc(OCCc5ccc6c(n5)NCCC6)ccc43)c2)CC1 (stereo not shown) [Example 154, 3-(5-(4-methylpiperazine-1-carbonyl)pyridin-3-yl)-3-(5-(2-(5,6,7,8-tetrahydro-1,8-naphthyridin-2-yl)ethoxy)-1H-indazol-1-yl)propanoic acid] | 29 nM |
| CN(C)C(=O)c1cccc(C(CC(=O)O)n2ncc3c(OCCc4ccc5c(n4)NCCC5)cccc32)c1 (stereo not shown) [Example 29, 3-(3-(Dimethylcarbamoyl)phenyl)-3-(4-(2-(5,6,7,8-tetrahydro-1,8-naphthyridin-2-yl)ethoxy)-1H-indazol-1-yl)propanoic acid] | 1500 nM |
| O=C(O)CC(c1ccc(Oc2ccccc2)cc1)n1ncc2cc(OCCc3ccc4c(n3)NCCC4)ccc21 (stereo not shown) [Example 57, 3-(4-Phenoxyphenyl)-3-(5-(2-(5,6,7,8-tetrahydro-1,8-naphthyridin-2-yl)ethoxy)-1H-indazol-1-yl)propanoic acid, TFA] | 11 nM |

| SMILES | IC50 |
| --- | --- |
| O=C(O)CC(c1ccc2ncsc2c1)n1ncc2cc(OCCc3ccc4c(n3)NCCC4)ccc21 (stereo not shown) [Example 110, 3-(Benzo[d]thiazol-6-yl)-3-(5-(2-(5,6,7,8-tetrahydro-1,8-naphthyridin-2-yl)ethoxy)-1H-indazol-1-yl)propanoic acid, TFA] | 19 nM |
| CN(C)c1cncc(C(CC(=O)O)n2ncc3cc(OCCc4ccc5c(n4)NCCC5)ccc32)c1 (stereo not shown) [Example 163, 3-(5-(dimethylamino)pyridin-3-yl)-3-(5-(2-(5,6,7,8-tetrahydro-1,8-naphthyridin-2-yl)ethoxy)-1H-indazol-1-yl)propanoic acid] | 3.8 nM |
| O=C(O)CC(c1ccc2c(c1)oc1ccccc12)n1ncc2cc(CCc3ccc4c(n3)NCCC4)ccc21 (stereo not shown) [Example 25, 3-(Dibenzo[b,d]furan-3-yl)-3-(5-(2-(5,6,7,8-tetrahydro-1,8-naphthyridin-2-yl)ethyl)-1H-indazol-1-yl)propanoic acid] | 530 nM |
| O=C(O)CC(C1CC1)n1ncc2cc(OCCc3ccc4c(n3)NCCC4)ccc21 (stereo not shown) [Example 45, 3-Cyclopropyl-3-(5-(2-(5,6,7,8-tetrahydro-1,8-naphthyridin-2-yl)ethoxy)-1H-indazol-1-yl)propanoic acid, TFA] | 2300 nM |
| O=C(O)CC(c1cncc(C(=O)N2CCOCC2)c1)n1ncc2cc(OCCc3ccc4c(n3)NCCC4)ccc21 (stereo not shown) [Example 152, 3-(5-(morpholine-4-carbonyl)pyridin-3-yl)-3-(5-(2-(5,6,7,8-tetrahydro-1,8-naphthyridin-2-yl)ethoxy)-1H-indazol-1-yl)propanoic acid] | 22 nM |
| COc1ccc(C(CC(=O)O)n2ncc3cc(OCCc4ccc5c(n4)NCCC5)ccc32)nn1 (stereo not shown) [Example 114, 3-(6-Methoxypyridazin-3-yl)-3-(5-(2-(5,6,7,8-tetrahydro-1,8-naphthyridin-2-yl)ethoxy)-1H-indazol-1-yl)propanoic acid, TFA] | 2.6 nM |
| CC(C)(O)c1cncc(C(CC(=O)O)n2ncc3cc(OCCc4ccc5c(n4)NCCC5)ccc32)c1 (stereo not shown) [Example 144, 3-(5-(2-hydroxypropan-2-yl)pyridin-3-yl)-3-(5-(2-(5,6,7,8-tetrahydro-1,8-naphthyridin-2-yl)ethoxy)-1H-indazol-1-yl)propanoic acid] | 5 nM |
| COC(=O)NCc1cncc(C(CC(=O)O)n2ncc3cc(OCCc4ccc5c(n4)NCCC5)ccc32)c1 (stereo not shown) [Example 167, 3-(5-(((Methoxycarbonyl)amino)methyl)pyridin-3-yl)-3-(5-(2-(5,6,7,8-tetrahydro-1,8-naphthyridin-2-yl)ethoxy)-1H-indazol-1-yl)propanoic acid] | 15 nM |
| O=C(O)CC(c1cccc(-n2cccn2)n1)n1ncc2cc(OCCc3ccc4c(n3)NCCC4)ccc21 (stereo not shown) [Example 134, 3-(6-(1H-Pyrazol-1-yl)pyridin-2-yl)-3-(5-(2-(5,6,7,8-tetrahydro-1,8-naphthyridin-2-yl)ethoxy)-1H-indazol-1-yl)propanoic acid] | 17 nM |
| Cc1ncc([C@@H](CC(=O)O)n2ncc3cc(OCCc4ccc5c(n4)N[C@H](C)CC5)ccc32)cn1 (single isomer, unassigned) [Example 175] | 6000 nM |
| O=C(O)CC(c1ccccn1)n1ncc2cc(OCCc3ccc4c(n3)NCCC4)ccc21 (stereo not shown) [Example 61, 3-(Pyridin-2-yl)-3-(5-(2-(5,6,7,8-tetrahydro-1,8-naphthyridin-2-yl)ethoxy)-1H-indazol-1-yl)propanoic acid, TFA] | 80 nM |
| CC(C)(C)OC(=O)N1CCC(C(CC(=O)O)n2ncc3cc(OCCc4ccc5c(n4)NCCC5)ccc32)CC1 (stereo not shown) [Example 74, 3-(1-(tert-Butoxycarbonyl)piperidin-4-yl)-3-(5-(2-(5,6,7,8-tetrahydro-1,8-naphthyridin-2-yl)ethoxy)-1H-indazol-1-yl)propanoic acid] | 260 nM |
| COc1ccc([C@H](CC(=O)O)n2cc3ccc(CCc4ccc5c(n4)NCCC5)cc3n2)cn1 [Example 7, (S)-3-(6-Methoxypyridin-3-yl)-3-(6-(2-(5,6,7,8-tetrahydro-1,8-naphthyridin-2-yl)ethyl)-2H-indazol-2-yl)propanoic acid] | 6.6 nM |
| O=C(O)CC(c1cccc(N2CCCC2=O)c1)n1ncc2cc(OCCc3ccc4c(n3)NCCC4)ccc21 (stereo not shown) [Example 62, 3-(3-(2-Oxopyrrolidin-1-yl)phenyl)-3-(5-(2-(5,6,7,8-tetrahydro-1,8-naphthyridin-2-yl)ethoxy)-1H-indazol-1-yl)propanoic acid, TFA] | 37 nM |
| O=C(O)C[C@H](c1cnc2nccnc2c1)n1ncc2cc(OCCc3ccc4c(n3)NCCC4)ccc21 [Example 128, (R)-3-(Pyrido[2,3-b]pyrazin-7-yl)-3-(5-(2-(5,6,7,8-tetrahydro-1,8-naphthyridin-2-yl)ethoxy)-1H-indazol-1-yl)propanoic acid] | 25 nM |
